Target: Protease (Human immunodeficiency virus 1, UniProt Q9YQ12)
Sequence (Q9YQ12 whole entry): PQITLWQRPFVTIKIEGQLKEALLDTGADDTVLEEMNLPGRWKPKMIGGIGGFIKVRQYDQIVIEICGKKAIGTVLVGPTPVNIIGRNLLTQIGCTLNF

## Nc1ncnc2c1ncn2CCOCP(=O)(O)O [ADEFOVIR]
  EC50: 16 µM

From ChEMBL document CHEMBL5725610, “Phosphonate compounds” (2018)
